Data: PMC11249953, “c-KIT inhibitors reduce pathology and improve behavior in the Tg(SwDI) model of Alzheimer’s disease” (Life Science Alliance, 2024)
Several values for one entry are separate records, joined by “and”; a condition that tells them apart may be missing. Equal entries are not always repeated.

Legend:
mice = assay: Elevated plus maze, source data sheets EPM (mouse line not given); format: in vivo; conditions: for EPM Trial 1 Closed Entries / EPM Trial 1 Open Entries / EPM Trial 2 Closed Entries / EPM Trial 2 Open Entries / EPM Trial 2 Time Closed / EPM Trial 1 Time Closed / EPM Trial 1 Time Open / EPM Trial 2 Time Open / EPM Totals Closed Entries / EPM Totals Open Entries / EPM Totals Time Closed / EPM Totals Time Open: individual mice; for EPM Trial 2 Time Closed / EPM Totals Time Closed / EPM Totals Time Open / Time Open: in s (unit assumed); for EPM Trial 1 Time Closed / EPM Trial 1 Time Open / EPM Trial 2 Time Open / Time Closed / Time Closed AVG / Time Open AVG: in s; for EPM Totals Closed Entries / EPM Totals Open Entries / EPM Totals Time Closed / EPM Totals Time Open: sum of trials 1 and 2; for Closed Entries AVG / Open Entries AVG / Time Closed AVG / Time Open AVG: group average
Procedure: The elevated plus maze was performed using a standard set up, with two enclosed arms and two open arms. Mice were placed at the intersection of the open and closed arms and allowed to freely explore for 5 min, two times. Time spent in the open and closed arms and number of entries into the open and closed arms were recorded.

FYN = target: T1, FYN (Homo sapiens, UniProt P06241); assay: KINOMEscan competition binding, FYN; conditions: 10 µM compound
T1 construct: DNA label for qPCR read-out (T7 phage fusion or DNA tag); purchased Eurofins DiscoverX Corporation; host or cells: T7 phage in E. coli (BL21-derived) or HEK-293
T1 sequence (P06241 whole entry, the tested form may be a part): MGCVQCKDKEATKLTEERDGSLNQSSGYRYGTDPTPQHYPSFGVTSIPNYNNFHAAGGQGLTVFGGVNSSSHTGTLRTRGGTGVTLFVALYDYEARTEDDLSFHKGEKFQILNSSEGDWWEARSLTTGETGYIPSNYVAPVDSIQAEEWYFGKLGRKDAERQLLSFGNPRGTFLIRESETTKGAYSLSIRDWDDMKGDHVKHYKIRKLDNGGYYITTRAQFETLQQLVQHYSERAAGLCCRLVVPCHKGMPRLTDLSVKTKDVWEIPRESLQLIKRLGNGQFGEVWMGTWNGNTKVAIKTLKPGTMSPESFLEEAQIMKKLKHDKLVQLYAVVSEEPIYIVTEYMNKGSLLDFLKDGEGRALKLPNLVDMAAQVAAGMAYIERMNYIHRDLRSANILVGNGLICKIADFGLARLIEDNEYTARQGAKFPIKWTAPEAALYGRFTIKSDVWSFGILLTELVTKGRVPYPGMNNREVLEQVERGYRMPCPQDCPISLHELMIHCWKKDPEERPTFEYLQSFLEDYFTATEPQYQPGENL
Procedure: (§1) The KINOMEscan screening platform (Eurofins DiscoverX Corporation) was performed using active site-directed competition binding assay to quantitatively measure interactions between BK40143 and BK40197 and more than 450 human kinases and disease relevant mutant variants. […] Screening “hits” are identified by measuring the amount of kinase captured in test (BK40143 and BK40197) versus control samples by using a quantitative and ultra-sensitive qRT-PCR method that detects the associated DNA label. BK40143 and BK40197 were screened at 10 µM concentration, and results for primary screen binding interactions were reported as “% Ctrl” (POC), where lower numbers indicate stronger hits and calculated as follows: [test compound signal−positive control signal/negative control signal−positive control signal]×100
(§2) negative control = DMSO (100% Ctrl)
(§3) positive control = control compound (0% Ctrl)
(§4) Based on screening data from of profiled compounds, a proportional relationship between primary screening results and corresponding compound/target affinities can be described as binding constants (Kd values) for the indicated ranges of POC values with tighter binding (higher affinity) interactions associated with lower POC values and weaker binding (lower affinity) associated with higher POC values. Briefly, kinase-tagged T7 phage strains were grown in parallel in 24-well blocks in an E. coli host derived from the BL21 strain. E. coli were grown to log-phase and infected with T7 phage from a frozen stock (multiplicity of infection = 0.4) and incubated with shaking at 32°C until lysis (90–150 min). The lysates were centrifuged (6,000g) and filtered (0.2 μm) to remove cell debris. The remaining kinases were produced in HEK-293 cells and subsequently tagged with DNA for qRT-PCR detection. Streptavidin-coated magnetic beads were treated with biotinylated small molecule ligands for 30 min at RT to generate affinity resins for kinase assays. The liganded beads were blocked with excess biotin and washed with blocking buffer (1% BSA, 0.05% Tween 20, 1 mM DTT; SeaBlock [Pierce]) to remove unbound ligand and to reduce non-specific phage binding. Binding reactions were assembled by combining kinases, liganded affinity beads, and test compounds in 1x binding buffer (20% 0.17x PBS, 0.05% Tween 20, 6 mM DTT; SeaBlock). Test compounds were prepared as 100x stocks in 100% DMSO and directly diluted into the assay. All reactions were performed in polypropylene 384-well plates in a final volume of 0.02 ml. The assay plates were incubated at RT with shaking for 1 h and the affinity beads were washed with wash buffer (1x PBS, 0.05% Tween 20). […] The kinase concentration in the eluates was measured by qRT-PCR.

CIT = target: T2, CIT (Homo sapiens, UniProt O14578); assay: KINOMEscan competition binding, CIT; conditions: 10 µM compound
T2 construct: DNA label for qPCR read-out (T7 phage fusion or DNA tag); purchased Eurofins DiscoverX Corporation; host or cells: T7 phage in E. coli (BL21-derived) or HEK-293
T2 sequence (O14578 whole entry, the tested form may be a part): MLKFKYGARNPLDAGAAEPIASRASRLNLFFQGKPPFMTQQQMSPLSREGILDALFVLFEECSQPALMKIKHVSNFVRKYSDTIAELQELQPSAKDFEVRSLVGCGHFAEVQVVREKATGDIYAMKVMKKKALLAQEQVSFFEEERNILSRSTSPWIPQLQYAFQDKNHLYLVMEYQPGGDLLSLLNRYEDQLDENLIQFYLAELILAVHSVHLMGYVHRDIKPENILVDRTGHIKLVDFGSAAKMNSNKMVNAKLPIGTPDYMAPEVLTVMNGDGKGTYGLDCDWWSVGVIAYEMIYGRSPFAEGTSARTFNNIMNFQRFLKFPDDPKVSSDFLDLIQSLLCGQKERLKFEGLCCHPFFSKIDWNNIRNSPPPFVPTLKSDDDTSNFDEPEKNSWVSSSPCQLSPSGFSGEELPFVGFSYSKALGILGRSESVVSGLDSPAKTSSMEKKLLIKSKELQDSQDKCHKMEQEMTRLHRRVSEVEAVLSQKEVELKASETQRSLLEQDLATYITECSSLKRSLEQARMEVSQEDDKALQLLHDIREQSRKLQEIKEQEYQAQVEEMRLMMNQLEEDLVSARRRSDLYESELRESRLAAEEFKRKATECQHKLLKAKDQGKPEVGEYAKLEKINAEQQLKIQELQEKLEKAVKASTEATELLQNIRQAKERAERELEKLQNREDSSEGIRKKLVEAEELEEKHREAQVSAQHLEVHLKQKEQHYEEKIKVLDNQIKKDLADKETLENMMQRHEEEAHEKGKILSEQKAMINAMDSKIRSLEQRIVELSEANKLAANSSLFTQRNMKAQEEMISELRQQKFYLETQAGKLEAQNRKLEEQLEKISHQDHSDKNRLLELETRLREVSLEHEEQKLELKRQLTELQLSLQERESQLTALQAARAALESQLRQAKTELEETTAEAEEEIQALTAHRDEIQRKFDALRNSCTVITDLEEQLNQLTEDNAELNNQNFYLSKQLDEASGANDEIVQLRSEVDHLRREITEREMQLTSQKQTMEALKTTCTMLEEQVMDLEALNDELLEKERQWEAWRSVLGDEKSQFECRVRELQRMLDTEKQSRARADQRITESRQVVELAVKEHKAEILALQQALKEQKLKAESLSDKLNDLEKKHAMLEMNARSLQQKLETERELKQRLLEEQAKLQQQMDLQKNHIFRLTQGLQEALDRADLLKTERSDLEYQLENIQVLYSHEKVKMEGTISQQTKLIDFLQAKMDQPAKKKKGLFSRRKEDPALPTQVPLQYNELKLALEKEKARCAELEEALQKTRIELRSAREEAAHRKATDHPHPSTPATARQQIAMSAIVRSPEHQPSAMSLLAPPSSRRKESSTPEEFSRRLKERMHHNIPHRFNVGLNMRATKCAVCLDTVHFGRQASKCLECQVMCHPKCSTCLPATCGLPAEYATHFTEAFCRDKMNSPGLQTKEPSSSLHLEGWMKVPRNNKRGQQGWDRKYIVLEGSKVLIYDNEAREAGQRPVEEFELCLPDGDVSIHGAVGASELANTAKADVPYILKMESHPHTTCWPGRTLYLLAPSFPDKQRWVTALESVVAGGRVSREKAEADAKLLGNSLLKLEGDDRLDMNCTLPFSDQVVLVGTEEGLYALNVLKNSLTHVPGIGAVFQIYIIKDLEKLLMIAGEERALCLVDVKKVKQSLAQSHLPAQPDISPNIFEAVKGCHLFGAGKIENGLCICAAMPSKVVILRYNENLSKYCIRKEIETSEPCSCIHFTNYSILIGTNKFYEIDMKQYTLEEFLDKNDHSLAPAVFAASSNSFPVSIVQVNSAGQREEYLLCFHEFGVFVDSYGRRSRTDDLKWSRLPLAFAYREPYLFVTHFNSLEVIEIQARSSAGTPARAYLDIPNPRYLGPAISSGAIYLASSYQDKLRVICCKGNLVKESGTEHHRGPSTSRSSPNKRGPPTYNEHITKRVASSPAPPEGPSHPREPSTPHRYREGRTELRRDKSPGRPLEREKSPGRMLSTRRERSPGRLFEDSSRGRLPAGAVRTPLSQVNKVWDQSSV
Procedure: as §1, §2, §3, §4

[1] = tested on: amyloid-beta in TgAPP mice; assay: Immunohistochemistry for amyloid-beta (6E10), hippocampus; format: in vivo, mouse; conditions: BK40143 5 mg/kg, BK40197 45 mg/kg, vs DMSO
Procedure: Staining for amyloid-beta and microglia was performed on left brain hemispheres collected from treated and untreated mice. Brains were cryoprotected with 30% sucrose and sectioned at 30 μm on a cryostat. Sections were then treated with an anti-amyloid beta (6E10, cat. #803001; BioLegend) or anti-IBA1 (cat. # 018-28523; Wako Chemicals) primary followed by either an AlexaFluor secondary (Thermo Fisher Scientific) and DAPI mounting medium (Vector Labs) or a biotinylated secondary and 3, 3′ diaminobenzidine chromogen substrate. Slides were imaged on either a Leica DMi8 light microscope or a Zeiss LSM 800 confocal microscope.

KIT (V559D) = target: T3, KIT (V559D) (Homo sapiens, UniProt P10721, V559D); assay: KINOMEscan competition binding, KIT (V559D); conditions: 10 µM compound
T3 construct: DNA label for qPCR read-out (T7 phage fusion or DNA tag); purchased Eurofins DiscoverX Corporation; host or cells: T7 phage in E. coli (BL21-derived) or HEK-293
T3 sequence (P10721 26-976 V559D): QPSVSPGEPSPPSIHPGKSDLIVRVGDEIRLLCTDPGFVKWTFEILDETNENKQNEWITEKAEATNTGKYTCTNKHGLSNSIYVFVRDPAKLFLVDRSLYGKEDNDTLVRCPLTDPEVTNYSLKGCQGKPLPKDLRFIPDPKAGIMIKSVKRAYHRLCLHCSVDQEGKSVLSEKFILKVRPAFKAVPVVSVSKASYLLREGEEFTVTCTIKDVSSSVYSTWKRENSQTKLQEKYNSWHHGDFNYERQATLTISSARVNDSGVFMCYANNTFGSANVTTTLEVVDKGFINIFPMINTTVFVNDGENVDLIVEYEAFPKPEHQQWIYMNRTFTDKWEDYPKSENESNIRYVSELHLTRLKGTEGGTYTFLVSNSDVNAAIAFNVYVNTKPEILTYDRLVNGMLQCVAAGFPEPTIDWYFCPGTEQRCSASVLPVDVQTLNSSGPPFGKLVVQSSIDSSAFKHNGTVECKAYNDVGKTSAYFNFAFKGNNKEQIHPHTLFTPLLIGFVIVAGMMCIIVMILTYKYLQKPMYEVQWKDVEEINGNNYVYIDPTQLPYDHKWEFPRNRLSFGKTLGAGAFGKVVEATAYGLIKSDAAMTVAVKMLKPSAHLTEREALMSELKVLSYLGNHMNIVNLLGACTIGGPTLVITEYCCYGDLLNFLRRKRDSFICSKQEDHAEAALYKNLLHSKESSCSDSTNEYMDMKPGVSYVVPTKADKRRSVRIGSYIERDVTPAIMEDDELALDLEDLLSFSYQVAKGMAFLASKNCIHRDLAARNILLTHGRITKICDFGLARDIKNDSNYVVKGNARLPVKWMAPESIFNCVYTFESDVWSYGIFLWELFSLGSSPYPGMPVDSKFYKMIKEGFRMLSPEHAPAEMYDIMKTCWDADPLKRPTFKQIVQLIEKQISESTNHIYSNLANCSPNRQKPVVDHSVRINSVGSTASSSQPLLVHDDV
Procedure: as §1, §2, §3, §4

p-ABL1 = target: T4, p-ABL1 (Homo sapiens, UniProt P00519); assay: KINOMEscan competition binding, p-ABL1; conditions: 10 µM compound
T4 construct: DNA label for qPCR read-out (T7 phage fusion or DNA tag); purchased Eurofins DiscoverX Corporation; host or cells: T7 phage in E. coli (BL21-derived) or HEK-293
T4 sequence (P00519 whole entry, the tested form may be a part): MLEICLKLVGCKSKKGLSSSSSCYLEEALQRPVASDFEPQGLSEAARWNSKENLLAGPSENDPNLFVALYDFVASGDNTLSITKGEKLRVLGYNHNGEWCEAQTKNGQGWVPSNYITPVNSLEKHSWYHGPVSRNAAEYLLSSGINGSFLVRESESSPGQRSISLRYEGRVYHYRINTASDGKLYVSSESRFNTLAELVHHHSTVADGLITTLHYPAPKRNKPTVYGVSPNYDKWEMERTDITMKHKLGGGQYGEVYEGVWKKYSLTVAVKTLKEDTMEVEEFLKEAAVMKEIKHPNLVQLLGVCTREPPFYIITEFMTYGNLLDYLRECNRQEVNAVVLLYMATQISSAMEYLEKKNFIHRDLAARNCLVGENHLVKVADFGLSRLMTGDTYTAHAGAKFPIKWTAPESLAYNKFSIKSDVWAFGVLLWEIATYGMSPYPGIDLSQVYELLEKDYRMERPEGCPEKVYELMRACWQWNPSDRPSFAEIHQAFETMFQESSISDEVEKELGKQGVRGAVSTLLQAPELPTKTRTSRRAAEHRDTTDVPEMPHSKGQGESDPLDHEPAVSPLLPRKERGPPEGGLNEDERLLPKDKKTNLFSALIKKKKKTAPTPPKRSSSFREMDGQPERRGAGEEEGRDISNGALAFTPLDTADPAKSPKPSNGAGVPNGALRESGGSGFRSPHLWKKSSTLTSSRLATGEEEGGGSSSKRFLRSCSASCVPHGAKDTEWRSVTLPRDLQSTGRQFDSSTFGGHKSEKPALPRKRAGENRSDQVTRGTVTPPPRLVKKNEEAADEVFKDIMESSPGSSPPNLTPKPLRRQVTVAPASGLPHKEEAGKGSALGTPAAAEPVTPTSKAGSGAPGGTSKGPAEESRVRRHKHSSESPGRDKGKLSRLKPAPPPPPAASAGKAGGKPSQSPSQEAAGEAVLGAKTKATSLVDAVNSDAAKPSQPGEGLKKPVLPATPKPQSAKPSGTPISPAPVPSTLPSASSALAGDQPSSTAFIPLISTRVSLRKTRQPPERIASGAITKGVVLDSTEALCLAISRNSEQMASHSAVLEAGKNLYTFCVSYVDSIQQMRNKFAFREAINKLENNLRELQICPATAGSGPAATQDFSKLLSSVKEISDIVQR
Procedure: as §1, §2, §3, §4

[2] = 2.5mg/kg, listed as 143, female mice
[3] = 2.5mg/kg, listed as 143, male mice
[4] = 5.0mg/kg, listed as 143, female mice
[5] = 5.0mg/kg, listed as 143, male mice
[6] = Totals (Trial 1 + Trial 2), individual animals, listed as 143
[7] = Trial 1, individual animals, listed as 143
[8] = Trial 2, individual animals, listed as 143

For `Cc1cccc(-c2cc3nccc(Nc4ccccc4)c3s2)c1` [BK40143], the “EPM Trial 1 Closed Entries” value (mice; [2]) was 7 and 2 and 1 and 3 and 5, the “EPM Trial 1 Open Entries” value (mice; [2]) was 6 and 2 and 1 and 5 and 3 and the “EPM Trial 2 Closed Entries” value (mice; [2]) was 2 and 8 and 1 and 5. For the same compound, the “EPM Trial 2 Open Entries” value (mice; [2]) was 1 and 6 and 0 and 4, the “EPM Trial 2 Time Closed” value (mice; [2]) was 296 and 240 and 300 and 257 and 277 and the “EPM Trial 2 Time Closed” value (mice; [3]) was 251. For the same compound, the “EPM Trial 1 Time Closed” value (mice; [2]) was 280 and 287 and 293 and 268 and 258 and 222, the “EPM Trial 1 Time Open” value (mice; [2]) was 20 and 13 and 7 and 32 and 42 and 78 and the “EPM Trial 2 Time Open” value (mice; [2]) was 4 and 60 and 0 and 43 and 23. For the same compound, the “EPM Trial 1 Time Closed” value (mice; [3]) was 255, the “EPM Trial 1 Time Open” value (mice; [3]) was 45 and the “EPM Trial 2 Time Open” value (mice; [3]) was 49. The “EPM Trial 1 Closed Entries” value (mice; [3]) was 10, the “EPM Trial 1 Open Entries” value (mice; [3]) was 10 and the “EPM Trial 2 Closed Entries” value (mice; [3]) was 6. For the same compound, the “EPM Trial 2 Open Entries” value (mice; [3]) was 8, the “EPM Totals Closed Entries” value (mice; [2]) was 9 and 10 and 2 and 3 and 8 and 11 and the “EPM Totals Open Entries” value (mice; [2]) was 7 and 8 and 1 and 5 and 10. The “EPM Totals Time Closed” value (mice; [2]) was 576 and 527 and 593 and 568 and 515 and 499, the “EPM Totals Time Open” value (mice; [2]) was 24 and 73 and 7 and 32 and 85 and 101 and the “EPM Totals Time Closed” value (mice; [3]) was 506. The “EPM Totals Time Open” value (mice; [3]) was 94, the “EPM Totals Closed Entries” value (mice; [3]) was 16 and the “EPM Totals Open Entries” value (mice; [3]) was 18. For the same compound, the “EPM Trial 1 Closed Entries” value (mice; [4]) was 2 and 3 and 5 and 4, the “EPM Trial 1 Open Entries” value (mice; [4]) was 1 and 5 and 4 and the “EPM Trial 2 Closed Entries” value (mice; [4]) was 1 and 6 and 13. The “EPM Trial 2 Open Entries” value (mice; [4]) was 0 and 6 and 1 and 7, the “EPM Trial 2 Time Closed” value (mice; [4]) was 300 and 219 and 298 and 244 and the “EPM Trial 2 Time Closed” value (mice; [5]) was 237 and 280 and 238. For the same compound, the “EPM Trial 1 Time Closed” value (mice; [4]) was 297 and 266 and 284 and 290 and 268 and 259, the “EPM Trial 1 Time Open” value (mice; [4]) was 3 and 34 and 16 and 10 and 32 and 41 and the “EPM Trial 2 Time Open” value (mice; [4]) was 0 and 81 and 2 and 56. The “EPM Trial 1 Time Closed” value (mice; [5]) was 300 and 261 and 228 and 166, the “EPM Trial 1 Time Open” value (mice; [5]) was 0 and 39 and 72 and 134 and the “EPM Trial 2 Time Open” value (mice; [5]) was 63 and 20 and 62. The “EPM Trial 1 Closed Entries” value (mice; [5]) was 1 and 6 and 9, the “EPM Trial 1 Open Entries” value (mice; [5]) was 0 and 6 and 9 and the “EPM Trial 2 Closed Entries” value (mice; [5]) was 7 and 8. For the same compound, the “EPM Trial 2 Open Entries” value (mice; [5]) was 3 and 8, the “EPM Totals Closed Entries” value (mice; [4]) was 3 and 9 and 6 and 17 and the “EPM Totals Open Entries” value (mice; [4]) was 1 and 11 and 4 and 5. For the same compound, the “EPM Totals Time Closed” value (mice; [4]) was 597 and 485 and 584 and 590 and 566 and 503, the “EPM Totals Time Open” value (mice; [4]) was 3 and 115 and 16 and 10 and 34 and 97 and the “EPM Totals Time Closed” value (mice; [5]) was 600 and 498 and 508 and 404. The “EPM Totals Time Open” value (mice; [5]) was 0 and 102 and 92 and 196, the “EPM Totals Closed Entries” value (mice; [5]) was 2 and 11 and 13 and the “EPM Totals Open Entries” value (mice; [5]) was 0 and 9 and 17. For the same compound, the “Closed Entries” value (mice; [6]) was 15 and 5 and 8 and 6 and 9 and 14 and 11, the “Open Entries” value (mice; [6]) was 10 and 7 and 8 and 6 and 12 and 17 and the “Time Closed” value (mice; [6]) was 435 and 498 and 481 and 538 and 465 and 421 and 544 and 262 and 497 and 529. The “Time Open” value (mice; [6]) was 165 and 102 and 119 and 62 and 135 and 179 and 56 and 338 and 103 and 71, the “Closed Entries AVG” value (mice; Totals) was 11.2 and the “Open Entries AVG” value (mice; Totals) was 9.1. For the same compound, the “Time Closed AVG” value (mice; Totals) was 467, the “Time Open AVG” value (mice; Totals) was 133 and the “Closed Entries AVG” value (mice; Trial 1) was 6.6. For the same compound, the “Open Entries AVG” value (mice; Trial 1) was 5.8, the “Time Closed AVG” value (mice; Trial 1) was 206.8 and the “Time Open AVG” value (mice; Trial 1) was 93.2. The “Closed Entries” value (mice; [7]) was 9 and 2 and 6 and 3 and 5 and 8 and 10 and 7, the “Open Entries” value (mice; [7]) was 7 and 3 and 6 and 5 and 4 and 9 and the “Time Closed” value (mice; [7]) was 160 and 258 and 206 and 186 and 167 and 254 and 112 and 227 and 240. For the same compound, the “Time Open” value (mice; [7]) was 140 and 42 and 94 and 114 and 133 and 46 and 188 and 73 and 60, the “Closed Entries AVG” value (mice; Trial 2) was 4.6 and the “Open Entries AVG” value (mice; Trial 2) was 3.3. The “Time Closed AVG” value (mice; Trial 2) was 260.2, the “Time Open AVG” value (mice; Trial 2) was 39.8 and the “Closed Entries” value (mice; [8]) was 6 and 3 and 2 and 4 and 7. For the same compound, the “Open Entries” value (mice; [8]) was 3 and 4 and 2 and 5 and 1 and 8, the “Time Closed” value (mice; [8]) was 275 and 240 and 280 and 279 and 254 and 290 and 150 and 270 and 289 and the “Time Open” value (mice; [8]) was 25 and 60 and 20 and 21 and 46 and 10 and 150 and 30 and 11. The Time/Entry (mice; total Time Open per total Open Entries, individual animals, listed as 143) was 16.5 and 14.5714 and 14.875 and 8.857 and 22.5 and 14.9167 and 9.333 and 19.8824 and 10.3 and 8.875, the inhibition at 10 µM (FYN) was 90% and the remaining binding at 10 µM (FYN; lower = stronger binding, read-out: FYN %Ctrl @ 10000nM) was 10%. The inhibition at 10 µM (CIT) was 97.2%, the remaining binding at 10 µM (CIT; lower = stronger binding, read-out: CIT %Ctrl @ 10000nM (POC)) was 2.8% and the “amyloid concentrations in dentate gyrus (6E10 staining)” value [1] was “robustly decreased amyloid concentrations in the dentate gyrus of the hippocampus”. It also gave an inhibition at 10 µM (KIT (V559D)) of 99.8%, a remaining binding at 10 µM (KIT (V559D); lower = stronger binding, read-out: KIT (V559D) %Ctrl @ 10000nM (POC)) of 0.25% and an inhibition at 10 µM (p-ABL1) of 97.5%. It also gave a remaining binding at 10 µM (p-ABL1; lower = stronger binding, read-out: p-ABL1 %Ctrl @ 10000nM (POC)) of 2.5%.
